Results on two molecules are retold here after US20250275993A1, “GLYCOSYLATION INHIBITORS AS THERAPEUTICS FOR STROKE” (The Regents of the University of California, priority 2022, published 2025).

One series relates to ERK and AKT. In words: Western blot of ERK and AKT activation in HUVEC and hDMVECs. Type of series: cell-based, human. Conditions: 40 μM. Here is the method:
Cells were allowed to reach-80% confluency in 12-well plates. […] At various time points, plates were taken out of the incubator and kept on ice. Cell monolayers were first washed once with ice-cold PBS before lysis with 250 μI of Pierce RIPA buffer (ThermoFisher Scientific, Rockford, IL) or use 50 mM Tris-HCl (pH 7.6), 150 mM NaCl, 10% Glycerol, 1% NP-40 containing protease/Phosphatase inhibitor cocktail (100×) (Cell signaling, #5872). Lysates were collected and mixed with 4× Bolt LDS Sample Buffer (Novex, Carlsbad, CA) in the presence of Halt protease inhibitors and phosphatase inhibitor cocktail (ThermoFisher scientific, #NP0007). The samples were subjected to SDS-PAGE (Bolt 4-12% Bis-Tris Plus, Invitrogen) using Bolt MES SDS running buffer or NuPAGE 3-8% Tris-Acetate gel using Tris-Acetate SDS running buffer (Novex). HUVECs (passage 6-8) were plated in EBM-2 basal medium (Lonza) with 0.2% FBS. Following overnight culture, cells were serum-starved in EBM-2 medium for 4 hrs prior to treatment with 50 ng/ml of VEGF165 or vehicle controls for various lengths. Equal amounts of protein lysates were analyzed by SDS-PAGE and blotted with the indicated antibodies. Proteins were transferred using Tris-Glycine buffer with 20% Methanol (Proteonomics grade) (Apex BioResearch Products). […]
For orientation: In western blotting, separated proteins are transferred to a membrane and probed.

The next series has as its system VEGFR2. In words: VEGFR2 western blot in BCECs (molecular mass, phosphorylation, PNGase F). The format is cell-based, bovine. Here is the method:
Glycerol-free PNGase F was obtained from New England Biolabs (Ipswich, MA). Briefly, BCECs were lysed with NP-40 containing proteinase inhibitors (Thermo Scientific, Waltham, MA). Lysates were cleared at 4° C. at 5000 g for 25 mins. Total protein content was measured using Pierce BCA protein assay kit (Thermo Scientific). 20 mg of protein was mixed with 10× denaturing buffer and H2O to a total volume of […]. Glycoproteins were denatured at 100° C. for 10 mins, followed by adding Glycobuffer and PNGase F. The reaction was carried out at 37° C. for 2 hr.
(§1) Cells were allowed to reach-80% confluency in 12-well plates. […] At various time points, plates were taken out of the incubator and kept on ice. […] Lysates were collected and mixed with 4× Bolt LDS Sample Buffer (Novex, Carlsbad, CA) in the presence of Halt protease inhibitors and phosphatase inhibitor cocktail (ThermoFisher scientific, #NP0007). […] HUVECs (passage 6-8) were plated in EBM-2 basal medium (Lonza) with 0.2% FBS. Following overnight culture, cells were serum-starved in EBM-2 medium for 4 hrs prior to treatment with 50 ng/ml of VEGF165 or vehicle controls for various lengths. Equal amounts of protein lysates were analyzed by SDS-PAGE and blotted with the indicated antibodies. Proteins were transferred using Tris-Glycine buffer with 20% Methanol (Proteonomics grade) (Apex BioResearch Products). Membranes were first incubated with 5% milk in TBST, pH 7.6 (TEKnova, Hollister, CA), followed by blotting with primary and secondary antibodies. ECL anti-rabbit IgG, horseradish peroxidase linked whole antibody from donkey or sheep anti-mouse were obtained from GE Healthcare (UK limited). SuperSignal West Dura Extended Duration substrate was from ThermoFisher Scientific. In some cases, the same PVDF membranes were stripped by 8-min incubation in the Restore Plus Western Blot Stripping Buffer (ThermoFisher Scientific) to show total specific protein expression, followed by second stripping for (3-actin expression.

In a further series the test system is ischemic hindlimb. In words: Hindlimb ischemia model and evaluation of blood flow. The format is in vivo, mouse. Particulars: for blood vessel density vs H2O-treated control (CD31): 3 weeks post-ligation; for blood flow recovery one week after surgery: 20% ManN orally or 1 mg/ml Kif ip every other day, H2O group 25%. The protocol:
The angiogenic effects of ManN and Kif in a mouse hindlimb ischemia model were assessed. The activity of ManN in a chronic ischemia model that might more specifically reflect its effects as an endothelial cell mitogen and a pro-angiogenic factor was assessed, and the hindlimb ischemia model in the mouse was considered. Several variants have been described, depending on which vessel is occluded. The variant chosen consists in ligation and excision of the femoral artery, which results in more severe ischemia compared to simple femoral artery ligation. Occlusion of two vessels produces more severe ischemia, but has the disadvantage of inducing severe pain and distress, as well as frequent ulcerations and necrosis in mice.
Oral administration of ManN was tested in this femoral artery ligation-excision model. Since Kif has been previously administered intraperitoneally for in vivo studies, this route was employed. Laser Doppler Perfusion Imaging (LDPI) was used as a non-invasive method to monitor time and extent of the blood flow recovery in the ischemic limb. Serial examination of blood flow was taken with LDPI and increment of the perfusion ratio of ischemic (ligated; left side) to non-ischemic (sham; right side) hindlimbs after ligation was used to indicate a recovery of blood flow. Starting immediately after surgery, mice were orally fed with 20% ManN or 1 mg/ml Kif ip every other day, as described in methods. One week after surgery, the perfusion ratio in H2O-fed group indicated a blood flow recovery of […], a value that is in good agreement with published data with the same type of lesion, in the same strain of mice.
C57BL/6 male mice (6-8 weeks old) were subjected to unilateral hindlimb surgery under anesthesia with ketamine/xylazine cocktail. Briefly, the left femoral artery was separated from the vein and nerve, ligated proximally, and excised. The right hindlimb served as control. Blood flow was measured by using a laser Doppler perfusion imager (PeriScan PSI; Perimed). Ischemic and nonischemic limb perfusion was measured before and after surgery and 1, 2 and 3 weeks later. After surgery, mice were randomly allocated to different groups (8 mice for each group). 200 μl of 20% ManN was orally administrated every other day from 3rd day after surgery. 200 μl of 1 mg/nil Kif was administrated through ip injection every other day. H2O was used as a vehicle control. The final blood flow values were expressed as the ratio of ischemic to nonischemic hindlimb perfusion from the same animal. Quantification of blood vessel area was carried out as described.

Series [1] relates to ERK, AKT, mTOR, CREB, ACC and eNOS. In words: Western blot of signal transduction pathways in BCECs. Type of series: cell-based, bovine. Here is the method: as §1
The subject of a further series is Bip, CHOP, ATF-6. As to the kind of experiment: Western blot of UPR responsive proteins in BCECs. The format is cell-based, bovine.
Another series deals with BCECs. In words: Cellular uptake of ManN and conversion to ManN-6P (HPAEC-PAD). Type of series: in vitro ADME, bovine.

SMILES strings stand for the structures.

As to `O=C1N[C@@H]2[C@@H](O)[C@@H](O)[C@H](O)[C@@H](CO)N2C1=O` [Kif, Kifunensine, reference compound], the “activation of ERK and AKT in human ECs by glycosylation inhibitors” value with ERK and AKT was “significantly activate ERK and AKT”. The “VEGFR2 molecular mass on SDS-PAGE after glycosylation inhibitors” value in the series with VEGFR2 (24 hours) is listed as “reduction in VEGFR2 molecular mass”. In addition, in the series on ischemic hindlimb, the “blood vessel density vs H2O-treated control (CD31)” value amounted to 1.8 times higher and the “blood flow recovery one week after surgery” value was roughly 47%. Moreover, in series [1] (40 μM, FIG. 7E), the “activation of ERK and AKT in BCECs by glycosylation inhibitors” value is “significantly activate ERK and AKT”. For the same molecule, in the series with Bip, CHOP, ATF-6 (media without growth factors for 24 hours), the “Bip expression by glycosylation inhibitors” value is “dose-dependent induction of Bip expression”.

Turning to `N[C@H](C=O)[C@@H](O)[C@H](O)[C@H](O)CO` [ManN, 2-Amino-2-deoxy-D-mannose], the “incorporation of ManN in N-glycans” value in the series on BCECs (BCECs) is reported as “No incorporation”. Further, the “ManN detected in cell lysate” value with BCECs (BCECs treated with 400 μM ManN for 2 hours) came to 0.66 nmol in 1 mg cell lysate. Also, the “concentration from which VEGFR2 apparent molecular mass shifts” value with VEGFR2 (BCECs and BRECs) was no less than 40 µM. Further, the “duration of ManN effects on protein mass in the absence of exogenous ManN” value in the series with VEGFR2 (BCECs, FIG. 4E) was “at least 8 hours”. In addition, in the series with VEGFR2 (ManN in BCEC), the “protein mass of av integrin, Neuropilin-1, VE-cadherin and bFGFR1” value is “affected as well”. Moreover, the “VEGFR2 phosphorylation in response to VEGF” value in the series with VEGFR2 (ManN pre-treated cells) was “decreased”. The “reversibility of VEGFR2 molecular mass change after ManN removal” value in the series on VEGFR2 (after 24 hours) is “completely reverse”. Further, in the series with VEGFR2 (after ManN addition in BCECs), the “ligand-independent VEGFR2 activation” value is on record as “No ligand-independent VEGFR2 activation”. In addition, the “dependence of ManN effects on VEGFR2 signaling” value in the series on VEGFR2 (experiments with axitinib) is “not dependent on VEGFR2 signaling”. The “specificity of VEGFR2 molecular mass shift” value with VEGFR2 (hexosamines and derivatives at 40 μM, 24 hours) is “unique to ManN among hexosamines and their derivatives”. Besides, the “extent of loss of VEGFR2 glycosylation (PNGase F treatment)” value with VEGFR2 (μM concentrations of ManN) is recorded as “not all the glycosylation on VEGFR2 was abolished”. Moreover, in the series with ischemic hindlimb, the “blood vessel density vs H2O-treated control (CD31)” value was determined as 2.3 times higher and the “blood flow recovery one week after surgery” value is “about 40%”. In addition, in series [1] (40 μM ManN, within 10-30 minutes), the “activation of eNOS and ACC” value is on record as “significantly activated”. For the same molecule, in series [1] (40 μM, BCECs), the “activation of ERK, AKT, mTOR and CREB” value is recorded as “activated”; the “time to stimulation of ERK, AKT and CREB after adding ManN” value is 10 to 30 min. Besides, the “activation of ERK, AKT and CREB with ManN plus VEGF vs either alone” value in series [1] (both ManN and VEGF present) is recorded as “enhancement in activation”. Also, the “synergy between ManN and VEGF in promoting Bip or CHOP expression” value with Bip, CHOP, ATF-6 (FIG. 5B) is reported as “No synergy”. Also, the “time of CHOP induction” value in the series on Bip, CHOP, ATF-6 (ManN, dose-dependent) is listed as “about 6 hours”. Also, the Bip expression entry with Bip, CHOP, ATF-6 (growing cells deprived of growth factor, evident at 24 and 48 hours) is listed as “significantly turn on Bip expression in a concentration-dependent manner”.
